The source made the active and inactive calls. No cut-off for these calls is given here.
Legend:
[1] = test system: WEHI265.1; experiment: In vitro inhibitory activity against lipopolysaccharide (LPS)-induced IL-6 production in murine myelomonocytic uM; format: functional, Mus musculus; parameters: concentration or dose not given beside the values
[2] = test system: Mus musculus; experiment: In vivo inhibition of TNF- alpha after intraperitoneal administration of 25 mpk dose; showed no inhibition; format: functional, organism-based
[3] = test system: Mus musculus; experiment: Effective dose required for in vivo inhibition of serum IL-6.; format: functional
[4] = test system: Mus musculus; experiment: In vivo inhibition of serum IL-1 after i.p. administration of 25 mpk dose; showed no inhibition; format: functional, organism-based
[5] = test system: Mus musculus; experiment: In vivo inhibition of serum IL-5 after i.p. administration of 25 mpk dose; showed no inhibition; format: functional, organism-based
[6] = species on record: Mus musculus; experiment: Inhibitory activity against serum IL-6.; format: functional, organism-based
[7] = test system: Mus musculus; experiment: In vivo inhibition of serum IL-6 after intraperitoneal administration of 25 mpk dose.; format: functional; conditions: ip
[8] = test system: Mus musculus; experiment: In vivo inhibition of serum IL-6 after peroral administration of 25 mpk dose.; format: functional; conditions: po
[9] = test system: WEHI265.1; experiment: In vitro inhibitory activity against lipopolysaccharide (LPS) -induced IL-6 production in murine myelomonocytic uM; cytotoxic; format: functional, cell-based; conditions: Mus musculus

Question: Oc1ccccc1-c1cccc(-c2ccccc2O)c1 was tested. Which Inhibition [1] did it give?
Answer: The Inhibition was 21%.

Question: Oc1ccc(-c2cncc(-c3ccc(O)cc3)c2Cl)cc1 was tested. Which Inhibition [1] did it give?
Answer: The Inhibition was 60%.

Question: For Oc1cccc(-c2cccc(-c3cccc(O)c3)c2)c1, which Inhibition [1] is on record?
Answer: The Inhibition was 21%.

Question: Which Activity [2] does the source give for Oc1ccc(-c2cncc(-c3ccc(O)cc3)c2)cc1 here?
Answer: Its Activity is “inactive”.

Question: And the ED50 [3]?
Answer: Its ED50 is 2.8 mg/kg.

Question: And the Activity [4]?
Answer: The Activity was “inactive”.

Question: What about the Inhibition [1] of the same compound?
Answer: Its Inhibition is 73%.

Question: What about the Activity [5] of the same compound?
Answer: The Activity was “inactive”.

Question: What about the IC50 [6] of the same compound?
Answer: The IC50 was 400 nM.

Question: What about the inhibition in vivo at 25 mg/kg [7] of the same compound?
Answer: Its inhibition in vivo at 25 mg/kg is 63%.

Question: And the inhibition in vivo at 25 mg/kg [8]?
Answer: Its inhibition in vivo at 25 mg/kg is 71%.

Question: For Fc1ccc(-c2ccc(-c3ccc(F)cc3)nc2)cc1, which Inhibition [1] is on record?
Answer: The Inhibition was 47%.

Question: Which Inhibition [1] does the source give for [O-][n+]1cc(-c2ccc(O)cc2)cc(-c2ccc(O)cc2)c1 here?
Answer: Its Inhibition is 37%.

Question: CN(C)Cc1ccc(-c2cncc(-c3ccc(CN(C)C)cc3)c2)cc1 was tested. Which Inhibition [1] did it give?
Answer: The Inhibition was 60%.

Question: COc1ccc(-c2cncc(-c3ccc(OC)cc3)c2)cc1 was tested. Which Inhibition [1] did it give?
Answer: Its Inhibition is 0%.

Question: Oc1ccc(-c2cccc(-c3ccc(O)cc3)c2)cc1 was tested. Which Activity [2] did it give?
Answer: The Activity was “inactive”.

Question: And the ED50 [3]?
Answer: Its ED50 is 1.5 mg/kg.

Question: What about the Activity [4] of the same compound?
Answer: Its Activity is “inactive”.

Question: And the Inhibition [1]?
Answer: Its Inhibition is 85%.

Question: What about the Activity [5] of the same compound?
Answer: Its Activity is “inactive”.

Question: And the IC50 [6]?
Answer: The IC50 was 1500 nM.

Question: And the inhibition in vivo at 25 mg/kg [7]?
Answer: The inhibition in vivo at 25 mg/kg was 88%.

Question: Which Inhibition [1] does the source give for COc1cccc(-c2cccc(-c3cccc(OC)c3)c2)c1 here?
Answer: Its Inhibition is 24%.

Question: Oc1ccc(-c2cnc(O)c(-c3ccc(O)cc3)c2)cc1 was tested. Which Inhibition [1] did it give?
Answer: The Inhibition was 49%.

Question: How did the Inhibition [1] turn out when Fc1ccc(-c2cncc(-c3ccc(F)cc3)c2)cc1 was run?
Answer: The Inhibition was 44%.

Question: COc1ccccc1-c1cccc(-c2ccccc2OC)c1 was tested. Which Inhibition [1] did it give?
Answer: Its Inhibition is 22%.

Question: For COc1ccc(-c2cccc(-c3ccc(OC)cc3)c2)cc1, which Inhibition [1] is on record?
Answer: Its Inhibition is 75%.

Question: Oc1cccc(-c2cncc(-c3cccc(O)c3)c2)c1 was tested. Which Inhibition [1] did it give?
Answer: The Inhibition was 59%.

Question: For Oc1ccc(-c2cccc(-c3ccc(O)cc3)n2)cc1, which Inhibition [1] is on record?
Answer: The Inhibition was 23%.

Question: Oc1ccc(-c2cncc(Cl)c2)cc1 was tested. Which Inhibition [1] did it give?
Answer: The Inhibition was 0%.

Question: Oc1ccc(-c2ccc(-c3ccc(O)cc3)nc2)cc1 was tested. Which Inhibition [1] did it give?
Answer: The Inhibition was 27%.

Question: How did the Inhibition [1] turn out when Oc1ccc(-c2cccnc2)cc1 was run?
Answer: The Inhibition was 0%.

Question: For N#Cc1ncc(-c2ccc(O)cc2)cc1-c1ccc(O)cc1, which Inhibition [1] is on record?
Answer: Its Inhibition is 40%.

Question: With Oc1ccc(-c2cc(-c3ccc(O)cc3)c(Cl)nc2Cl)cc1 as the compound, how does the Inhibition [1] read?
Answer: The Inhibition was 52%.

Question: For CN(C)Cc1ccc(-c2cccc(-c3ccc(CN(C)C)cc3)c2)cc1, which inhibition [9] is on record?
Answer: Its inhibition is “Toxic”.

Question: Which Inhibition [1] does the source give for COc1ccc(-c2ccc(-c3ccc(OC)cc3)nc2)cc1 here?
Answer: The Inhibition was 30%.

Question: With Oc1ccc(-c2cnc(Cl)c(-c3ccc(O)cc3)c2)cc1 as the compound, how does the Inhibition [1] read?
Answer: Its Inhibition is 61%.

Question: Oc1ccc(-c2cncc(-c3ccc(O)cc3)n2)cc1 was tested. Which Inhibition [1] did it give?
Answer: The Inhibition was 55%.

Question: With Fc1ccc(-c2cccc(-c3ccc(F)cc3)n2)cc1 as the compound, how does the Inhibition [1] read?
Answer: The Inhibition was 44%.

Question: Which Inhibition [1] does the source give for Cc1cncc(-c2ccc(O)cc2)c1 here?
Answer: Its Inhibition is 7%.

Question: COc1ccc(-c2cccc(-c3ccc(OC)cc3)n2)cc1 was tested. Which Inhibition [1] did it give?
Answer: The Inhibition was 55%.

Question: For Oc1ccccc1-c1cncc(-c2ccccc2O)c1, which Inhibition [1] is on record?
Answer: The Inhibition was 23%.

Question: c1ccc(-c2cncc(-c3ccccc3)c2)cc1 was tested. Which Inhibition [1] did it give?
Answer: The Inhibition was 8%.

From ChEMBL document CHEMBL1128825, “Synthetic inhibitors of interleukin-6 II: 3,5-diaryl pyridines and meta-terphenyls” (Bioorg Med Chem Lett, 1995)
